These results are taken from BindingDB's records for patent US9695131 (Bayer Pharma Aktiengesellschaft, 2017).

pIC50: −log10 of the molar value. Where “and” joins values, the source holds several entries; their conditions need not be identical. Identical values can stand only once.

The pIC50 is the IC50 on a negative log10 scale, so that one unit is a factor of ten. A lower pIC50 goes with a high IC50.

This test deals with T1, chymase (Golden hamster, UniProt A0A1U7QTH6).
T1 sequence (A0A1U7QTH6 whole entry): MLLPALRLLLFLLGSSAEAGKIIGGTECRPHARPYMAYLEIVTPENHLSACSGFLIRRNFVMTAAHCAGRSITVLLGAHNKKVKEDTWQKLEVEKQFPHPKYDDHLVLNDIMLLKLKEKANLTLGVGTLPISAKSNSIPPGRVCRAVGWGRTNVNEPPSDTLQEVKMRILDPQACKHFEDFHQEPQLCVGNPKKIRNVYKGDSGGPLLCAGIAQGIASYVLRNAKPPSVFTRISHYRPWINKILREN
In words: Enzymatic Chymase Assay. The conditions noted are these: pH 7.5.
In turn, `Cn1c(=O)n(C)c2cc(-n3cc(C#N)c(=O)n(C4CCc5c(Cl)cccc54)c3=O)ccc21` (racemic) [US9695131, 7] had a pIC50 of 7.43.

Turning to `Cn1c(=O)sc2cc(-n3cc(C#N)c(=O)n(C4CCc5c(Cl)cccc54)c3=O)ccc21` (racemic) [US9695131, 8], the negative-log IC50 (pIC50) is 7.28.

Turning to `Cn1c(=O)sc2cc(-n3cc(-c4nnn[nH]4)c(=O)n(C4CCc5c(Cl)cccc54)c3=O)ccc21` (racemic) [US9695131, 23], the pIC50 is 8.14.

For the compound `Cn1c(=O)oc2cc(-n3cc(-c4nnn[nH]4)c(=O)n(C4CCCc5c(Cl)cccc54)c3=O)ccc21` (racemic) [US9695131, 30], the pIC50 was 7.89.

In the case of `Cc1c(Cn2c(=O)c(C(=O)NC(C)C(=O)O)cn(-c3ccc(N4CCNC4=O)cc3)c2=O)cccc1C(F)(F)F` (racemic) [US9695131, 45], the pIC50 was 7.60.

On to `Cc1c(Cn2c(=O)c(C(=O)NC(C)C(=O)O)cn(-c3ccc4c(c3)C(C)(C)C(=O)N4C)c2=O)cccc1C(F)(F)F` (racemic) [US9695131, 47], for which the pIC50 was 8.38.

As to `Cc1c(Cn2c(=O)c(C(=O)NC(C)C(=O)O)cn(-c3ccc4c(c3)ncn4C)c2=O)cccc1C(F)(F)F` (racemic) [US9695131, 57], the pIC50 was 7.72.

`Cn1c(=O)oc2cc(-n3cc(C#N)c(=O)n([C@@H]4CCc5c4cccc5C(F)(F)F)c3=O)ccc21` [US9695131, 2] had a pIC50 of 7.74.

In turn, `Cn1c(=O)sc2cc(-n3cc(C#N)c(=O)n([C@@H]4CCc5c4cccc5C(F)(F)F)c3=O)ccc21` [US9695131, 3] had a pIC50 of 8.06.

Compound `Cc1c(Cn2c(=O)c(C#N)cn(-c3ccc(N4CCNC4=O)cc3)c2=O)cccc1C(F)(F)F` [US9695131, 4] had a negative-log IC50 (pIC50) of 7.32.

`Cc1c(Cn2c(=O)c(C#N)cn(-c3ccc(N4CCOC4=O)cc3)c2=O)cccc1C(F)(F)F` [US9695131, 5] had a negative logarithm of the IC50 (pIC50) of 7.54.

`Cc1c(Cn2c(=O)c(C#N)cn(-c3ccc4c(c3)n(C)c(=O)n4C)c2=O)cccc1C(F)(F)F` [US9695131, 6]: the pIC50 is 8.18.

Turning to `COc1ccc(-n2cc(C#N)c(=O)n(Cc3cccc(C(F)(F)F)c3C)c2=O)cc1OC` [US9695131, 9], the negative logarithm of the IC50 (pIC50) was 7.46.

`Cc1c(C#N)c(=O)n([C@@H]2CCc3c2cccc3C(F)(F)F)c(=O)n1-c1ccc2c(c1)oc(=O)n2C` [US9695131, 12]: the pIC50 was 8.12.

`Cn1c(=O)oc2cc(-n3cc(-c4nnn[nH]4)c(=O)n([C@@H]4CCc5c4cccc5C(F)(F)F)c3=O)ccc21` [US9695131, 14] showed a negative-log IC50 (pIC50) of 8.46.

The compound `Cn1c(=O)sc2cc(-n3cc(-c4nnn[nH]4)c(=O)n([C@@H]4CCc5c4cccc5C(F)(F)F)c3=O)ccc21` [US9695131, 15] gave a pIC50 of 8.55.

`Cn1c(=O)n(C)c2cc(-n3cc(-c4nnn[nH]4)c(=O)n(C4CCc5c(Cl)cccc54)c3=O)ccc21` (centres undefined) [US9695131, 18]: the pIC50 is 8.34 and 8.55.

In turn, `Cc1c(Cn2c(=O)c(-c3nnn[nH]3)cn(-c3ccc4c(c3)n(C)c(=O)n4C)c2=O)cccc1C(F)(F)F` [US9695131, 19] gave a pIC50 of 8.24.

As to `COc1ccc(-n2cc(-c3nnn[nH]3)c(=O)n(Cc3cccc(C(F)(F)F)c3C)c2=O)cc1OC` [US9695131, 20], the pIC50 is 7.66.

As for `Cc1c(Cn2c(=O)c(-c3nnn[nH]3)cn(-c3ccc(N4CCNC4=O)cc3)c2=O)cccc1C(F)(F)F` [US9695131, 21], the pIC50 was 7.49.

The compound `Cc1c(Cn2c(=O)c(-c3nnn[nH]3)cn(-c3ccc(N4CCOC4=O)cc3)c2=O)cccc1C(F)(F)F` [US9695131, 25] showed a negative logarithm of the IC50 (pIC50) of 7.52.

For the compound `COc1ccc(-n2cc(-c3nnn[nH]3)c(=O)n(Cc3cccc(C(F)(F)F)c3Cl)c2=O)cc1` [US9695131, 26], the pIC50 was 7.36.

As for `COc1ccc(-n2cc(-c3nnn[nH]3)c(=O)n(Cc3cccc(Cl)c3Cl)c2=O)cc1` [US9695131, 27], the pIC50 was 6.89.

In turn, `Cc1c(Cn2c(=O)c(-c3noc(=O)[nH]3)cn(-c3ccc4c(c3)n(C)c(=O)n4C)c2=O)cccc1C(F)(F)F` [US9695131, 33] had a negative logarithm of the IC50 (pIC50) of 8.31.

With `Cc1c(Cn2c(=O)c(-c3noc(=O)[nH]3)cn(-c3ccc(N4CCNC4=O)cc3)c2=O)cccc1C(F)(F)F` [US9695131, 34], the negative-log IC50 (pIC50) was 7.26.

In the case of `Cc1c(Cn2c(=O)c(-c3noc(=O)[nH]3)cn(-c3ccc(N4CCOC4=O)cc3)c2=O)cccc1C(F)(F)F` [US9695131, 35], the pIC50 was 7.44.

Compound `COc1ccc(-n2cc(-c3noc(=O)[nH]3)c(=O)n(Cc3cccc(C(F)(F)F)c3C)c2=O)cc1OC` [US9695131, 36] had a pIC50 of 7.72.

With `COc1ccc(-n2cc(-c3noc(=O)[nH]3)c(=O)n(Cc3cccc(C(F)(F)F)c3C)c2=O)cc1` [US9695131, 37], the pIC50 is 7.12.

`Cn1c(=O)oc2cc(-n3cc(-c4noc(=O)[nH]4)c(=O)n([C@@H]4CCc5c4cccc5C(F)(F)F)c3=O)ccc21` [US9695131, 38] showed a negative-log IC50 (pIC50) of 8.09.

Compound `Cc1c(Cn2c(=O)c(-c3nsc(=O)[nH]3)cn(-c3ccc(N4CCOC4=O)cc3)c2=O)cccc1C(F)(F)F` [US9695131, 39] had a negative-log IC50 (pIC50) of 7.80.

For `COc1ccc(-n2cc(-c3nsc(=O)[nH]3)c(=O)n(Cc3cccc(C(F)(F)F)c3C)c2=O)cc1OC` [US9695131, 40], the pIC50 was 7.92.

Regarding `Cn1c(=O)oc2cc(-n3cc(C(N)=O)c(=O)n([C@@H]4CCc5c4cccc5C(F)(F)F)c3=O)ccc21` [US9695131, 41], the pIC50 is 7.92.

As to `Cn1c(=O)sc2cc(-n3cc(C(N)=O)c(=O)n([C@@H]4CCc5c4cccc5C(F)(F)F)c3=O)ccc21` [US9695131, 42], the pIC50 is 8.01.

For the compound `CCOC(=O)C(C)(C)NC(=O)c1cn(-c2ccc3c(c2)n(C)c(=O)n3C)c(=O)n(Cc2cccc(C(F)(F)F)c2C)c1=O` [US9695131, 48], the pIC50 was 7.27.

For `Cc1c(Cn2c(=O)c(C(=O)NC(C)(C)C(=O)O)cn(-c3ccc4c(c3)n(C)c(=O)n4C)c2=O)cccc1C(F)(F)F` [US9695131, 49], the pIC50 is 8.44.

`CCOC(=O)C1(NC(=O)c2cn(-c3ccc4c(c3)n(C)c(=O)n4C)c(=O)n(Cc3cccc(C(F)(F)F)c3C)c2=O)CCC1` [US9695131, 50] had a negative-log IC50 (pIC50) of 7.41.

Compound `Cc1c(Cn2c(=O)c(C(=O)NC3(C(=O)O)CCC3)cn(-c3ccc4c(c3)n(C)c(=O)n4C)c2=O)cccc1C(F)(F)F` [US9695131, 51] gave a pIC50 of 8.52.

The compound `Cc1c(Cn2c(=O)c(C(N)=O)cn(-c3ccc(N4CCNC4=O)cc3)c2=O)cccc1C(F)(F)F` [US9695131, 52] gave a negative-log IC50 (pIC50) of 7.03.

`COC(=O)CCNC(=O)c1cn(-c2ccc(N3CCNC3=O)cc2)c(=O)n(Cc2cccc(C(F)(F)F)c2C)c1=O` [US9695131, 53] gave a negative-log IC50 (pIC50) of 6.74.

In the case of `Cc1c(Cn2c(=O)c(C(=O)NCC#N)cn(-c3ccc(N4CCNC4=O)cc3)c2=O)cccc1C(F)(F)F` [US9695131, 55], the pIC50 was 6.62.

Turning to `COc1ccc(-n2cc(C(=O)NCCC(=O)O)c(=O)n(Cc3cccc(Cl)c3Cl)c2=O)cc1` [US9695131, 59], the pIC50 was 6.04.

In turn, `COC(=O)C(COC(C)(C)C)NC(=O)c1cn(-c2ccc(N3CCNC3=O)cc2)c(=O)n(Cc2cccc(C(F)(F)F)c2C)c1=O` (centres undefined) [US9695131, 60] gave a pIC50 of 5.80.

On to `Cc1c(Cn2c(=O)c(C(=O)NC(CO)C(=O)O)cn(-c3ccc(N4CCNC4=O)cc3)c2=O)cccc1C(F)(F)F` (centres undefined) [US9695131, 61], for which the pIC50 is 7.77.

For `Cn1c(=O)oc2cc(-n3cc(C(=O)NC#N)c(=O)n([C@@H]4CCc5c4cccc5C(F)(F)F)c3=O)ccc21` [US9695131, 63], the negative-log IC50 (pIC50) was 8.59.
